Test results published in the supplement of paper PMC10307832.

How the values were obtained:
Assay in all cases: relative viability (nuclei count vs DMSO), 5 days (fraction); higher = more cells survive
[1] = tested on: A-427
Summary of the method: (§1)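 Lung cancer cell lines were seeded in 1536-well plates and dosed by pin tool the next day, with either a single drug or a fixed anchor-drug dose combined with five library-drug doses (not always all listed) spaced in √10 steps. Five days later, one step fixed the cells and stained their nuclei (final 0.05% Triton X-100, 1% formaldehyde, 1 ug/ml Hoechst), and nuclei were counted on 4× images. Relative viability is the nuclei count in treated wells divided by the count in vehicle wells, and each value is the median of duplicate plates.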

[2] = tested on: COR-L 105
Summary of the method: as §1

[3] = tested on: ChaGo-K-1
Summary of the method: as §1

[4] = tested on: EKVX
Summary of the method: as §1

[5] = tested on: EMC-BAC-2
Summary of the method: as §1

[6] = tested on: H3255
Summary of the method: as §1

[7] = tested on: HCC-366
Summary of the method: as §1

[8] = tested on: LK-2
Summary of the method: as §1

[9] = tested on: LOU-NH91
Summary of the method: as §1

[10] = tested on: NCI-H1563
Summary of the method: as §1

[11] = tested on: NCI-H1666
Summary of the method: as §1

[12] = tested on: NCI-H1734
Summary of the method: as §1

[13] = tested on: NCI-H1755
Summary of the method: as §1

[14] = tested on: NCI-H1792
Summary of the method: as §1

[15] = tested on: NCI-H1944
Summary of the method: as §1

[16] = tested on: NCI-H1975
Summary of the method: as §1

[17] = tested on: NCI-H2170
Summary of the method: as §1

[18] = tested on: NCI-H23
Summary of the method: as §1

[19] = tested on: NCI-H441
Summary of the method: as §1

[20] = tested on: NCI-H520
Summary of the method: as §1

[21] = tested on: NCI-H596
Summary of the method: as §1

[22] = tested on: PC-3 [JPC-3]
Summary of the method: as §1

[23] = tested on: SK-MES-1
Summary of the method: as §1

[24] = tested on: SW 900
Summary of the method: as §1

`C[C@@H]1CN(CC(=O)Nc2ccc3c(c2)Cc2cccc(-c4cc(=O)cc(N5CCOCC5)o4)c2S3)C[C@H](C)O1` + Nc1nc2[nH]cc(CCc3ccc(C(=O)N[C@@H](CCC(=O)O)C(=O)O)cc3)c2c(=O)[nH]1 [Pemetrexed] (partner 0.2 µM) gave a relative viability ([1]; first compound 0.04 µM) of 1.05, a relative viability ([1]; first compound 0.1265 µM) of 1.04 and a relative viability ([1]; first compound 0.4 µM) of 1.02. It also gave a relative viability ([1]; first compound 4 µM) of 0.921, a relative viability ([2]; first compound 0.04 µM) of 1.15 and a relative viability ([2]; first compound 0.1265 µM) of 1.07. The relative viability ([2]; first compound 0.4 µM) was 1.19, the relative viability ([2]; first compound 4 µM) was 1.14 and the relative viability ([3]; first compound 0.04 µM) was 0.24. It also gave a relative viability ([3]; first compound 0.1265 µM) of 0.245, a relative viability ([3]; first compound 0.4 µM) of 0.252 and a relative viability ([3]; first compound 4 µM) of 0.226. It also gave a relative viability ([4]; first compound 0.04 µM) of 0.376, a relative viability ([4]; first compound 0.1265 µM) of 0.42 and a relative viability ([4]; first compound 0.4 µM) of 0.31. The relative viability ([4]; first compound 4 µM) was 0.369, the relative viability ([5]; first compound 0.04 µM) was 0.417 and the relative viability ([5]; first compound 0.1265 µM) was 0.439. The relative viability ([5]; first compound 0.4 µM) was 0.458, the relative viability ([5]; first compound 4 µM) was 0.459 and the relative viability ([6]; first compound 0.04 µM) was 0.539. For the same molecule, the relative viability ([6]; first compound 0.1265 µM) was 0.522, the relative viability ([6]; first compound 0.4 µM) was 0.482 and the relative viability ([6]; first compound 4 µM) was 0.489. The relative viability ([7]; first compound 0.04 µM) was 0.151, the relative viability ([7]; first compound 0.1265 µM) was 0.162 and the relative viability ([7]; first compound 0.4 µM) was 0.212. For the same molecule, the relative viability ([7]; first compound 4 µM) was 0.152, the relative viability ([8]; first compound 0.04 µM) was 0.218 and the relative viability ([8]; first compound 0.1265 µM) was 0.288. The relative viability ([8]; first compound 0.4 µM) was 0.237, the relative viability ([8]; first compound 4 µM) was 0.217 and the relative viability ([9]; first compound 0.04 µM) was 0.339. The relative viability ([9]; first compound 0.1265 µM) was 0.367, the relative viability ([9]; first compound 0.4 µM) was 0.36 and the relative viability ([9]; first compound 4 µM) was 0.329. The relative viability ([10]; first compound 0.04 µM) was 0.661, the relative viability ([10]; first compound 0.1265 µM) was 0.774 and the relative viability ([10]; first compound 0.4 µM) was 0.715. It also gave a relative viability ([10]; first compound 4 µM) of 0.712, a relative viability ([11]; first compound 0.04 µM) of 0.905 and a relative viability ([11]; first compound 0.1265 µM) of 0.837. The relative viability ([11]; first compound 0.4 µM) was 0.845, the relative viability ([11]; first compound 4 µM) was 0.843 and the relative viability ([12]; first compound 0.04 µM) was 0.424. For the same molecule, the relative viability ([12]; first compound 0.1265 µM) was 0.405, the relative viability ([12]; first compound 0.4 µM) was 0.386 and the relative viability ([12]; first compound 4 µM) was 0.398. For the same molecule, the relative viability ([13]; first compound 0.04 µM) was 0.401, the relative viability ([13]; first compound 0.1265 µM) was 0.507 and the relative viability ([13]; first compound 0.4 µM) was 0.453. It also gave a relative viability ([13]; first compound 4 µM) of 0.47, a relative viability ([14]; first compound 0.04 µM) of 0.72 and a relative viability ([14]; first compound 0.1265 µM) of 0.766. For the same molecule, the relative viability ([14]; first compound 0.4 µM) was 0.719, the relative viability ([14]; first compound 4 µM) was 0.591 and the relative viability ([15]; first compound 0.1265 µM) was 0.819. It also gave a relative viability ([15]; first compound 0.4 µM) of 0.642, a relative viability ([15]; first compound 4 µM) of 0.616 and a relative viability ([16]; first compound 0.04 µM) of 0.268. It also gave a relative viability ([16]; first compound 0.1265 µM) of 0.263, a relative viability ([16]; first compound 0.4 µM) of 0.303 and a relative viability ([16]; first compound 4 µM) of 0.274. It also gave a relative viability ([17]; first compound 0.04 µM) of 0.266, a relative viability ([17]; first compound 0.1265 µM) of 0.286 and a relative viability ([17]; first compound 0.4 µM) of 0.259. For the same molecule, the relative viability ([17]; first compound 4 µM) was 0.26, the relative viability ([18]; first compound 0.04 µM) was 0.685 and the relative viability ([18]; first compound 0.1265 µM) was 0.696. It also gave a relative viability ([18]; first compound 0.4 µM) of 0.617, a relative viability ([18]; first compound 4 µM) of 0.521 and a relative viability ([19]; first compound 0.04 µM) of 0.281. It also gave a relative viability ([19]; first compound 0.1265 µM) of 0.263, a relative viability ([19]; first compound 0.4 µM) of 0.247 and a relative viability ([19]; first compound 4 µM) of 0.217. It also gave a relative viability ([20]; first compound 0.04 µM) of 0.844, a relative viability ([20]; first compound 0.1265 µM) of 0.666 and a relative viability ([20]; first compound 0.4 µM) of 0.534. For the same molecule, the relative viability ([20]; first compound 4 µM) was 0.492, the relative viability ([21]; first compound 0.04 µM) was 0.548 and the relative viability ([21]; first compound 0.1265 µM) was 0.535. The relative viability ([21]; first compound 0.4 µM) was 0.429, the relative viability ([21]; first compound 4 µM) was 0.481 and the relative viability ([22]; first compound 0.04 µM) was 1.04. The relative viability ([22]; first compound 0.1265 µM) was 1.09, the relative viability ([22]; first compound 0.4 µM) was 1.21 and the relative viability ([22]; first compound 4 µM) was 0.943. The relative viability ([23]; first compound 0.04 µM) was 1.01, the relative viability ([23]; first compound 0.1265 µM) was 0.9 and the relative viability ([23]; first compound 0.4 µM) was 0.808. The relative viability ([23]; first compound 4 µM) was 0.808, the relative viability ([24]; first compound 0.04 µM) was 0.469 and the relative viability ([24]; first compound 0.1265 µM) was 0.471. For the same molecule, the relative viability ([24]; first compound 0.4 µM) was 0.44 and the relative viability ([24]; first compound 4 µM) was 0.453.
